Results taken from patent US9346815B2, “5-chloro-2-difluoromethoxyphenyl pyrazolopyrimidine compounds, compositions and methods of use thereof” (Genentech, Inc., priority 2014, dated 2016).

Key:
[1] = target: isolated recombinant JAK1 kinase domain (Homo sapiens (Human), UniProt P23458); experiment: JAK1 enzyme assay (Caliper LabChip, peptide phosphorylation); format: biochemical; conditions: isolated recombinant JAK1 kinase domain, 25 μM ATP
[2] = target: isolated recombinant JAK2 kinase domain (Homo sapiens (Human), UniProt O60674); experiment: JAK2 enzyme assay (Caliper LabChip, peptide phosphorylation); format: biochemical; conditions: 25 μM ATP
[3] = test system: JAK1-dependent STAT6 phosphorylation downstream of IL-13 stimulation in BEAS-2B human bronchial epithelial cells; experiment: JAK1 pathway assay in BEAS-2B cells (IL-13-pSTAT6, MSD); format: cell-based; conditions: read-out: IL13-pSTAT6 EC50 (uM)_BEAS-2B
Method in brief: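 Cells were preincubated with compounds (0.2% DMSO) for 30 min (TF-1, GM-CSF-starved overnight, serum-free OptiMEM, 300,000 cells/well) or 1 h (BEAS-2B, complete medium, 100,000 cells/well) at 37 °C.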

Sequence of isolated recombinant JAK1 kinase domain (P23458 875-1153): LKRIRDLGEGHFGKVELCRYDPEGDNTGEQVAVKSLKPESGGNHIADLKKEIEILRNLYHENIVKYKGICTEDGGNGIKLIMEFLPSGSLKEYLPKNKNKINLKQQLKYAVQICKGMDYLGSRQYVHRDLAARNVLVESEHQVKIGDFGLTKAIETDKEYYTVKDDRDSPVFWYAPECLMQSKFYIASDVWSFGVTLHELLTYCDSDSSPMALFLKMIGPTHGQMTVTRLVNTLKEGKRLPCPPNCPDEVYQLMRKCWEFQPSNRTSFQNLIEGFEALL
Sequence of isolated recombinant JAK2 kinase domain (O60674 849-1124): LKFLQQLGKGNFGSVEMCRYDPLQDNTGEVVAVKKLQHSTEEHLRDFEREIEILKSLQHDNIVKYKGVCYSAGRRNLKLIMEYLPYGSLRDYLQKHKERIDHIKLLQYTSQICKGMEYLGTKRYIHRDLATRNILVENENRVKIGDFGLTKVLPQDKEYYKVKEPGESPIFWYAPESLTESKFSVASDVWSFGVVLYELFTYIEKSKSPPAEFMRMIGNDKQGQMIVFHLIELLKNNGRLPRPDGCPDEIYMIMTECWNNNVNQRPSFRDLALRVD

| Ki [1] | Ki [2] | SMILES | EC50 [3] |
| --- | --- | --- | --- |
| 0.29 nM | 0.74 nM | CN(C1CCN(C(=O)Cn2cc(NC(=O)c3cnn4cccnc34)c(-c3cc(Cl)ccc3OC(F)F)n2)CC1)C1(C#N)CC1 [Example 431, N-(3-(5-chloro-2-(difluoromethoxy)phenyl)-1-(2-(4-((1-cyanocyclopropyl)(methyl)amino)piperidin-1-yl)-2-oxoethyl)-1H-pyrazol-4-yl)pyrazolo[1,5-a]pyrimidine-3-carboxamide] | 0.0029 µM |
| 0.31 nM | 0.7 nM | CC(F)(F)CNC1CCN(C(=O)Cn2cc(NC(=O)c3cnn4cccnc34)c(-c3cc(Cl)ccc3OC(F)F)n2)CC1 [Example 463, N-(3-(5-chloro-2-(difluoromethoxy)phenyl)-1-(2-(4-(2,2-difluoro-propylamino)piperidin-1-yl)-2-oxoethyl)-1H-pyrazol-4-yl)pyrazolo[1,5-a]pyrimidine-3-carboxamide] | 0.007 µM |
| 1.24 nM | 0.46 nM | COC(=O)[C@@H](N)CCn1cc(NC(=O)c2cnn3cccnc23)c(-c2cc(Cl)ccc2OC(F)F)n1 [Example 387, methyl (2S)-2-amino-4-[3-[5-chloro-2-(difluoromethoxy)phenyl]-4-[pyrazolo[1,5-a]pyrimidine-3-amido]-1H-pyrazol-1-yl]butanoate] | 0.0107 µM |
| 0.38 nM | 0.89 nM | O=C(Nc1cn(CC(=O)N2CCC(N3CCOCC3)CC2)nc1-c1cc(Cl)ccc1OC(F)F)c1cnn2cccnc12 [Example 393, N-[3-[5-chloro-2-(difluoromethoxy)phenyl]-1-[2-[4-(morpholin-4-yl)piperidin-1-yl]-2-oxoethyl]-1H-pyrazol-4-yl]pyrazolo[1,5-a]pyrimidine-3-carboxamide] | 0.0115 µM |
| 0.25 nM | 0.74 nM | CC(C#N)CN(C)C1CCN(C(=O)Cn2cc(NC(=O)c3cnn4cccnc34)c(-c3cc(Cl)ccc3OC(F)F)n2)CC1 (stereo not drawn) [Example 413, N-(3-(5-chloro-2-(difluoromethoxy)phenyl)-1-(2-(4-((2-cyanopropyl) (methyl)amino)piperidin-1-yl)-2-oxoethyl)-1H-pyrazol-4-yl)pyrazolo[1,5-a]pyrimidine-3-carboxamide] | 0.0209 µM |
| 0.51 nM | 0.77 nM | CN1CCC2CN(C(=O)Cn3cc(NC(=O)c4cnn5cccnc45)c(-c4cc(Cl)ccc4OC(F)F)n3)CC21 (stereo not drawn) [Example 430, N-(3-(5-chloro-2-(difluoromethoxy)phenyl)-1-(2-(1-methyl-hexahydropyrrolo[3,4-b]pyrrol-5(1H)-yl)-2-oxoethyl)-1H-pyrazol-4-yl)pyrazolo[1,5-a]pyrimidine-3-carboxamide] | 0.0058 µM |
| 1.06 nM | 0.56 nM | COC(=O)CNCCn1cc(NC(=O)c2cnn3cccnc23)c(-c2cc(Cl)ccc2OC(F)F)n1 [Example 386, methyl 2-[(2-[3-[5-chloro-2-(difluoromethoxy)phenyl]-4-[pyrazolo[1,5-a]pyrimidine-3-amido]-1H-pyrazol-1-yl]ethyl)amino]acetate] | 0.0297 µM |
| 0.35 nM | 0.87 nM | O=C(Nc1cn(CC(=O)N2CCC(N3CCNCC3=O)CC2)nc1-c1cc(Cl)ccc1OC(F)F)c1cnn2cccnc12 [Example 445, N-(3-(5-chloro-2-(difluoromethoxy)phenyl)-1-(2-oxo-2-(4-(2-oxopiperazin-1-yl)piperidin-1-yl)ethyl)-1H-pyrazol-4-yl)pyrazolo[1,5-a]pyrimidine-3-carboxamide] | 0.3 µM |
| 0.51 nM | 2.42 nM | CN1CCC(COC(=O)C2CCN(C(=O)Cn3cc(NC(=O)c4cnn5cccnc45)c(-c4cc(Cl)ccc4OC(F)F)n3)CC2)CC1 [Example 388, (1-methylpiperidin-4-yl)methyl 1-(2-[3-[5-chloro-2-(difluoromethoxy)phenyl]-4-[pyrazolo[1,5-a]pyrimidine-3-amido]-1H-pyrazol-1-yl]acetyl)piperidine-4-carboxylate] | 0.0241 µM |
| 0.9 nM | 0.39 nM | O=C(Nc1cn(CCN[C@H]2CCOC2)nc1-c1cc(Cl)ccc1OC(F)F)c1cnn2cccnc12 [Example 399, N-(3-(5-chloro-2-(difluoromethoxy)phenyl)-1-(2-((S)-tetrahydrofuran-3-ylamino)ethyl)-1H-pyrazol-4-yl)pyrazolo[1,5-a]pyrimidine-3-carboxamide] | 0.0232 µM |
| 0.87 nM | 0.61 nM | O=C(Nc1cn(C/C=C/CN2CCOCC2)nc1-c1cc(Cl)ccc1OC(F)F)c1cnn2cccnc12 [Example 394, N-[3-[5-chloro-2-(difluoromethoxy)phenyl]-1-[(2E)-4-(morpholin-4-yl)but-2-en-1-yl]-1H-pyrazol-4-yl]pyrazolo[1,5-a]pyrimidine-3-carboxamide] | 0.0311 µM |
| 0.71 nM | 0.78 nM | O=C(Nc1cn(CC(=O)N2CC3CCCNC3C2)nc1-c1cc(Cl)ccc1OC(F)F)c1cnn2cccnc12 (stereo not drawn) [Example 439, N-(3-(5-chloro-2-(difluoromethoxy)phenyl)-1-(2-(octahydropyrrolo[3,4-b]pyridin-6-yl)-2-oxoethyl)-1H-pyrazol-4-yl)pyrazolo[1,5-a]pyrimidine-3-carboxamide] | 0.0353 µM |

The remaining lines, values behind:

| SMILES | Ki [1] | Ki [2] | EC50 [3] |
| --- | --- | --- | --- |
| CN(C)C(=O)CN1CCN(C(=O)Cn2cc(NC(=O)c3cnn4cccnc34)c(-c3cc(Cl)ccc3OC(F)F)n2)CC1 [Example 325, N-[3-[5-chloro-2-(difluoromethoxy)phenyl]-1-(2-[4-[(dimethylcarbamoyl)methyl]piperazin-1-yl]-2-oxoethyl)-1H-pyrazol-4-yl]pyrazolo[1,5-a]pyrimidine-3-carboxamide] | 0.41 nM | 1.03 nM | 0.0651 µM |
| O=C(Nc1cn(CC(=O)N2CCC(C(=O)OCCN3CCOCC3)CC2)nc1-c1cc(Cl)ccc1OC(F)F)c1cnn2cccnc12 [Example 336, 2-(morpholin-4-yl)ethyl 1-(2-[3-[5-chloro-2-(difluoromethoxy)phenyl]-4-[pyrazolo[1,5-a]pyrimidine-3-amido]-1H-pyrazol-1-yl]acetyl)piperidine-4-carboxylate] | 0.49 nM | 1.05 nM | 0.0145 µM |
| CC1CN(C(=O)Cn2cc(NC(=O)c3cnn4cccnc34)c(-c3cc(Cl)ccc3OC(F)F)n2)CCN1C (stereo not drawn) [Example 376, N-[3-[5-chloro-2-(difluoromethoxy)phenyl]-1-[2-(3,4-dimethylpiperazin-1-yl)-2-oxoethyl]-1H-pyrazol-4-yl]pyrazolo[1,5-a]pyrimidine-3-carboxamide] | 0.66 nM | 1.03 nM | 0.0325 µM |
| CC1(CN2CCN(C(=O)Cn3cc(NC(=O)c4cnn5cccnc45)c(-c4cc(Cl)ccc4OC(F)F)n3)CC2)COC1 [Example 318, N-[3-[5-chloro-2-(difluoromethoxy)phenyl]-1-(2-[4-[(3-methyloxetan-3-yl)methyl]piperazin-1-yl]-2-oxoethyl)-1H-pyrazol-4-yl]pyrazolo[1,5-a]pyrimidine-3-carboxamide] | 0.56 nM | 1.11 nM | 0.0283 µM |
| O=C(Nc1cn(CCNCc2ccccc2O)nc1-c1cc(Cl)ccc1OC(F)F)c1cnn2cccnc12 [Example 326, N-[3-[5-chloro-2-(difluoromethoxy)phenyl]-1-(2-[[(2-hydroxyphenyl)methyl]amino]ethyl)-1H-pyrazol-4-yl]pyrazolo[1,5-a]pyrimidine-3-carboxamide] | 0.21 nM | 0.28 nM | 0.007 µM |
| CN(CC1=CC(=O)OC1)C1CCN(C(=O)Cn2cc(NC(=O)c3cnn4cccnc34)c(-c3cc(Cl)ccc3OC(F)F)n2)CC1 [Example 352, N-[3-[5-chloro-2-(difluoromethoxy)phenyl]-1-[2-(4-[methyl[(5-oxo-2,5-dihydrofuran-3-yl)methyl]amino]piperidin-1-yl)-2-oxoethyl]-1H-pyrazol-4-yl]pyrazolo[1,5-a]pyrimidine-3-carboxamide] | 0.33 nM | 0.75 nM | 0.0124 µM |
| O=C1CCC(CN2CCN(C(=O)Cn3cc(NC(=O)c4cnn5cccnc45)c(-c4cc(Cl)ccc4OC(F)F)n3)CC2)O1 (stereo not drawn) [Example 382, N-[3-[5-chloro-2-(difluoromethoxy)phenyl]-1-(2-oxo-2-[4-[(5-oxooxolan-2-yl)methyl]piperazin-1-yl]ethyl)-1H-pyrazol-4-yl]pyrazolo[1,5-a]pyrimidine-3-carboxamide] | 0.34 nM | 0.75 nM | 0.0257 µM |
| CN1CCN(C2CCN(C(=O)Cn3cc(NC(=O)c4cnn5cccnc45)c(-c4cc(Cl)ccc4OC(F)F)n3)CC2)CC1 [Example 349, N-[3-[5-chloro-2-(difluoromethoxy)phenyl]-1-[2-[4-(4-methylpiperazin-1-yl)piperidin-1-yl]-2-oxoethyl]-1H-pyrazol-4-yl]pyrazolo[1,5-a]pyrimidine-3-carboxamide] | 0.55 nM | 1.65 nM | 0.0155 µM |
| O=C(O)CN(CCn1cc(NC(=O)c2cnn3cccnc23)c(-c2cc(Cl)ccc2OC(F)F)n1)Cc1cccnc1 [Example 363, 2-[(2-[3-[5-chloro-2-(difluoromethoxy)phenyl]-4-[pyrazolo[1,5-a]pyrimidine-3-amido]-1H-pyrazol-1-yl]ethyl)(pyridin-3-ylmethyl)amino]acetic acid] | 4.15 nM | 1.21 nM | 3.78 µM |
| O=C(O)CNC1CCN(C(=O)Cn2cc(NC(=O)c3cnn4cccnc34)c(-c3cc(Cl)ccc3OC(F)F)n2)CC1 [Example 365, 2-[[1-(2-[3-[5-chloro-2-(difluoromethoxy)phenyl]-4-[pyrazolo[1,5-a]pyrimidine-3-amido]-1H-pyrazol-1-yl]acetyl)piperidin-4-yl]amino]acetic acid] | 0.41 nM | 0.55 nM | 7.56 µM |
